Measured values: paper PMC9551276, “Design, synthesis and biological evaluation of novel orthosteric-allosteric ligands of the cannabinoid receptor type 2 (CB2R)” (Frontiers in Chemistry, 2022)
Values joined by “and” are separate entries in the source; they are usually repeats but may differ in a detail not shown here. Equal values may be shown once.

Assays:
hCB2R [1] = molecular target: T1, hCB2R (Homo sapiens, UniProt P34972); test: DiscoveRx HitHunter inhibition of FSK-stimulated cAMP accumulation; assay type: cell-based
Protocol: Inhibition of FSK-stimulated cAMP accumulation was measured using the DiscoveRx HitHunter assay.

hCB2R [2] = molecular target: T1, hCB2R; test: DiscoveRx PathHunter βarrestin2 recruitment; assay type: cell-based
Protocol: βarrestin2 recruitment was quantified using the DiscoveRx PathHunter® assay. […] Detection solution was added to cells (DiscoveRx), and cells were incubated for 60 min at room temperature. Chemiluminescence was measured on a Cytation5 plate reader (top read, gain 200, integration time 10,000 ms).

hCB1R = molecular target: T2, hCB1R (Homo sapiens, UniProt P21554); test: [3H]CP55,940 radioligand displacement, CHO-K1 hCB1R membranes; assay type: binding; settings: % [3H]CP55,940 bound, 1 nM radioligand, 2 h
T2 construct: expressed in transfected cells; host or cells: CHO-K1 (ATCC CCL-61) stably expressing hCB1R; membranes
Protocol: (§1) CHO-K1 cells were thawed, diluted in Tris buffer (50 mM Tris [pH 7.4]) and homogenized in a 1 ml hand-held homogenizer. hCB1R and hCB2R CHO-K1 cell membranes were collected by cavitation in a pressure cell, and sedimented by ultracentrifugation. Pellets were resuspended in TME buffer (50 mM Tris, 5 mM MgCl2, 1 mM EDTA [pH 7.4]), and protein concentration was measured via the Bradford method according to the manufacturer’s directions (Bio-Rad Laboratories, Mississauga, ON). […] Radioligand binding began with the addition of CHO-K1 cell membranes (25 µg protein per sample). Assays were performed for 120 min at 37°C and stopped by the addition of ice-cold Tris binding buffer (pH 7.4), followed by vacuum filtration using a 24-well sampling manifold (Brandel Cell Harvester; Brandel Inc., Gaithersburg, MD, United States ). Brandel GF/B filter paper was soaked with wash buffer at 4 °C for at least 24 h. Each filter paper was washed 6 times with a 1.2 ml aliquot of Tris-binding buffer (pH 7.4), then air-dried and submerged in 5 ml of scintillation fluid (Ultima Gold XR, PerkinElmer). Liquid scintillation spectrometry was used to quantify radioactivity.

hCB2R [3] = molecular target: T1, hCB2R; test: [3H]CP55,940 radioligand displacement, CHO-K1 hCB2R membranes; assay type: binding; settings: for hCB2R E min (% CP55,940) ± S.E.M: % [3H]CP55,940 bound, 1 nM radioligand, 2 h; for Effect on [3H]CP55,940 bound to hCB2R: [3H]CP55,940 displacement
Protocol: as §1, with “Assays were performed for 120 min at 37°C and stopped by the addition of ice-cold Tris binding buffer (pH 7.4), followed by vacuum filtration using a 24-well sampling manifold (Brandel Cell Harvester; Brandel Inc., Gaithersburg, MD, United States ).” left out

[4] = system: human microglial cells (HMC3); test: IL-6 and IL-10 release (ELISA) in LPS/TNFα-stimulated HMC3 cells; assay type: cell-based
Protocol: The concentrations of pro-inflammatory (IL-6) and anti-inflammatory (IL-10) interleukins were determined by performing specific ELISA assays (MyBioSource, San Diego, CA, United States ) on collected culture media. Human microglial cells (HMC3) were exposed to pretreatment with test compounds for 1 h followed by stimulation with LPS (10 μg/ml)/TNFα (50 ng/ml) for 24 h. In competition experiments, the CB2R antagonist (SR144528, 1 μM) or the CB2R positive allosteric modulator (EC21a 1 or 10 μM) were administered 15 min before agonist administration.

[5] = CHO-K1 hCB2R, 10 µM FSK, 90 min
[6] = CHO-K1 hCB2R, 10 µM FSK, 90 min, read-out: Inhibition of cAMP EC50 (95% C.I.)
[7] = CHO-K1 hCB2R, 90 min, read-out: βarrestin2 recruitment EC50 (95% C.I.)

T1 sequence (P34972 whole entry): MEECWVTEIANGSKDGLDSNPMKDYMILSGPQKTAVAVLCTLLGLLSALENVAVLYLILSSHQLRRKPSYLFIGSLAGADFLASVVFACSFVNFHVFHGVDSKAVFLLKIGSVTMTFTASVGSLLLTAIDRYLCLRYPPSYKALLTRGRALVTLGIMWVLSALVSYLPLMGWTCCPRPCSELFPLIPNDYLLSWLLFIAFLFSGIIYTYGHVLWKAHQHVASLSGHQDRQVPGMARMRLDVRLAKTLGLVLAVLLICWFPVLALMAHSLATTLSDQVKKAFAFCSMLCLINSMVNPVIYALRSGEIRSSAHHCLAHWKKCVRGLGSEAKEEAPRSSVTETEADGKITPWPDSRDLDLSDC
T2 sequence (P21554 whole entry): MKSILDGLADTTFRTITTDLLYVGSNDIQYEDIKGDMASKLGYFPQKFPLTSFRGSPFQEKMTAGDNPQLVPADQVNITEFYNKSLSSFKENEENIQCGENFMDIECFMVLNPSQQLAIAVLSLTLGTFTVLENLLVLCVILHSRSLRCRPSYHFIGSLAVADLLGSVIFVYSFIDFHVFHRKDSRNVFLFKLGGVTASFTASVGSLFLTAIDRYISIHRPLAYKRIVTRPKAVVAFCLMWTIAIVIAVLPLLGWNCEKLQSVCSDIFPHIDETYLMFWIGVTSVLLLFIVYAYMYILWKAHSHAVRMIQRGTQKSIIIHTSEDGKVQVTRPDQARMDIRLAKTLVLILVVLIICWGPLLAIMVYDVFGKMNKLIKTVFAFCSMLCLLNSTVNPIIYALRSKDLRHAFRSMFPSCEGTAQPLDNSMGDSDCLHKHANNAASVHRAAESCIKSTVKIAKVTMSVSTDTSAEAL

SMILES	EC50 (hCB2R [1]) [nM]	Inhibition of cAMP E max (% CP55,940) ± S.E.M (hCB2R [1]; [5])	EC50 (hCB2R [2]) [nM]	βarrestin2 recruitment E max (% CP55,940) ± S.E.M (hCB2R [2]; CHO-K1 hCB2R, 90 min)	melting point	EC50 (hCB2R [1]; [6]) [nM]	EC50 (hCB2R [2]; [7]) [nM]	hCB1R E min (% CP55,940) ± S.E.M (hCB1R)	IC50 (hCB2R [3]) [nM]	hCB2R E min (% CP55,940) ± S.E.M (hCB2R [3])	Effect on [3H]CP55,940 bound to hCB2R (hCB2R [3])	Response in inhibition of FSK-stimulated cAMP accumulation (hCB2R [1]; CHO-K1 hCB2R)	EC50 (hCB2R [1]; Inhibition of cAMP EC50 (95% C.I.), CHO-K1 hCB2R, 10 µM FSK, 90 min) [nM]	EC50 (hCB2R [1]; Inhibition of cAMP EC50 (95% C.I.), co-administration, EC21a concentration-response in the presence of 10 nM LV62, 10 µM FSK, 90 min) [nM]	Response in βarrestin2 recruitment (hCB2R [2]; CHO-K1 hCB2R)	Effect of co-administered EC21a on JR64a anti-inflammatory activity (IL-6 release) ([4]; EC21a at equimolar or higher doses, LPS/TNFα)	Effect of equimolar EC21a on LV62 anti-inflammatory activity ([4]; LV62 1 or 10 μM with EC21a 1:1, LPS/TNFα 24 h)
Cc1c(Br)cn(CCCCCn2c(=O)c(C(=O)NC3CCC(C)CC3)cc3cccnc32)c(=O)c1NC(=O)C1CCCCCC1 (stereo not shown) [JR61a, 1-(5-(5-bromo-3-(cycloheptanecarboxamido)-4-methyl-2-oxopyridin-1(2H)-yl)pentyl)-N-(4-methylcyclohexyl)-2-oxo-1,2-dihydro-1,8-naphthyridine-3-carboxamide]	420	46 ± 1.7 % CP55,940	> 10000	34 ± 2.2 % CP55,940	118 °C (dec.)												
Cc1c(Br)cn(CCOCCn2c(=O)c(C(=O)NC3CCC(C)CC3)cc3cccnc32)c(=O)c1NC(=O)C1CCCCCC1 (stereo not shown) [JR58a, 1-(2-(2-(5-bromo-3-(cycloheptanecarboxamido)-4-methyl-2-oxopyridin-1(2H)-yl)ethoxy)ethyl)-N-(4-methylcyclohexyl)-2-oxo-1,2-dihydro-1,8-naphthyridine-3-carboxamide]	270	45 ± 2.9 % CP55,940	> 10000	51 ± 2.8 % CP55,940	110 °C (dec.)												
Cc1c(Br)cn(Cc2cn(CCCCCn3c(=O)c(C(=O)NC4CCC(C)CC4)cc4cccnc43)nn2)c(=O)c1NC(=O)C1CCCCCC1 (stereo not shown) [JR26a, 1-(5-(4-((5-bromo-3-(cycloheptanecarboxamido)-4-methyl-2-oxopyridin-1(2H)-yl)methyl)-1H-1,2,3-triazol-1-yl)pentyl)-N-(4-methylcyclohexyl) -2-oxo-1,2-dihydro-1,8-naphthyridine-3-carboxamide]		41 ± 5.1 % CP55,940		39 ± 6.1 % CP55,940	116 °C (dec.)	110	> 10000										
Cc1c(Br)cn(CCCCOCCCCn2c(=O)c(C(=O)NC3CCC(C)CC3)cc3cccnc32)c(=O)c1NC(=O)C1CCCCCC1 (stereo not shown) [JR60a, 1-(4-(4-(5-bromo-3-(cycloheptanecarboxamido)-4-methyl-2-oxopyridin-1(2H)-yl)butoxy)butyl)-N-(4-methylcyclohexyl)-2-oxo-1,2-dihydro-1,8-naphthyridine-3-carboxamide]	770	46 ± 4.4 % CP55,940	> 10000	36 ± 9.2 % CP55,940	118 °C (dec.)												
Cc1c(Br)cn(CCCc2cn(CCCCCn3c(=O)c(C(=O)NC4CCC(C)CC4)cc4cccnc43)nn2)c(=O)c1NC(=O)C1CCCCCC1 (stereo not shown) [JR22a, 1-(5-(4-(3-(5-bromo-3-(cycloheptanecarboxamido)-4-methyl-2-oxopyridin-1(2H)-yl)propyl)-1H-1,2,3-triazol-1-yl)pentyl)-N-(4-methylcyclohexyl)-2-oxo-1,2-dihydro-1,8-naphthyridine-3-carboxamide]	62	38 ± 5.5 % CP55,940	> 10000	33 ± 3.1 % CP55,940	114 °C (dec.)												
CC1CCC(NC(=O)c2cc3cccnc3n(CCCCCO)c2=O)CC1 (stereo not shown) [LV62, reference compound]	58	110 ± 8.8 % CP55,940 and 110 ± 5.3 % CP55,940		65 ± 1.4 % CP55,940				106 ± 3.6 % CP55,940	0.65	16 ± 11.9 % CP55,940	fully displaced						
Cc1c(Br)cn(Cc2ccc(F)cc2)c(=O)c1NC(=O)C1CCCCCC1 [EC21a, reference compound]		2.5 ± 0.53 % CP55,940	> 10000	1.4 ± 0.96 % CP55,940				103 ± 2.5 % CP55,940	36	115 ± 7.9 % CP55,940	increased	no response was detected	> 10000	4.3	no response was detected	no effects on JR64a anti-inflammatory activity	enhanced LV62 anti-inflammatory activity
Cc1c(Br)cn(Cc2cn(CCCCC(=O)NC3CCC(NC(=O)c4cc5cccnc5n(Cc5ccc(F)cc5)c4=O)CC3)nn2)c(=O)c1NC(=O)C1CCCCCC1 (stereo not shown) [JR16a, N-(4-(5-(4-((5-bromo-3-(cycloheptanecarboxamido)-4-methyl-2-oxopyridin-1(2H)-yl)methyl)-1H-1,2,3-triazol-1-yl)pentanamido)cyclohexyl)-1-(4-fluorobenzyl)-2-oxo-1,2-dihydro-1,8-naphthyridine-3-carboxamide]		36 ± 8.6 % CP55,940		27 ± 4.2 % CP55,940	113 °C (dec.)	350											
Cc1c(Br)cn(CCCc2cn(CCCCC(=O)NC3CCC(NC(=O)c4cc5cccnc5n(Cc5ccc(F)cc5)c4=O)CC3)nn2)c(=O)c1NC(=O)C1CCCCCC1 (stereo not shown) [JR14a, N-(4-(5-(4-(3-(5-bromo-3-(cycloheptanecarboxamido)-4-methyl-2-oxopyridin-1(2H)-yl)propyl)-1H-1,2,3-triazol-1-yl)pentanamido)cyclohexyl)-1-(4-fluorobenzyl)-2-oxo-1,2-dihydro-1,8-naphthyridine-3-carboxamide]		41 ± 5.7 % CP55,940		39 ± 0.93 % CP55,940	108 °C (dec.)	150	25	98 ± 2.5 % CP55,940	1.8	59 ± 12.3 % CP55,940		modest partial agonist activity					
